Measurements from the NIST ThermoML archive (doi:10.1021/je3008974).
Numbers after ± are expanded uncertainties.

Conditions: Liquid

F/C=C/C(F)(F)F [trans-1,3,3,3-tetrafluoropropene]
Conditions	mass density [kg/m3]
285.5 K, 1018.5 kPa, isochoric method	1205.5 ± 2.4
286.92 K, 2021.5 kPa, isochoric method	1205.4 ± 2.4
288.32 K, 3010.5 kPa, isochoric method	1205.3 ± 2.4
289.41 K, 3779.9 kPa, isochoric method	1205.2 ± 2.4
291.42 K, 20124 kPa, isochoric method	1254.7 ± 2.4
291.45 K, 5221.8 kPa, isochoric method	1205 ± 2.4
298.03 K, 1062.5 kPa, isochoric method	1165.6 ± 2.4
298.14 K, 9928.4 kPa, isochoric method	1204.5 ± 2.4
298.15 K, 2000 kPa, Pycnometric method	1170.52 ± 1.1
299.62 K, 2045.7 kPa, isochoric method	1165.5 ± 2.4
301.21 K, 3025.5 kPa, isochoric method	1165.3 ± 2.4
302.81 K, 4026.8 kPa, isochoric method	1165.2 ± 2.4
304.38 K, 4991.3 kPa, isochoric method	1165.1 ± 2.4
305.08 K, 14792 kPa, isochoric method	1203.9 ± 2.4
312.4 K, 1349.3 kPa, isochoric method	1117.7 ± 2.4
312.58 K, 10069 kPa, isochoric method	1164.5 ± 2.4
312.58 K, 19938 kPa, isochoric method	1203.3 ± 2.4
313.7 K, 2032.5 kPa, isochoric method	1117.6 ± 2.4
315.61 K, 3038.9 kPa, isochoric method	1117.5 ± 2.4
317.51 K, 4033.2 kPa, isochoric method	1117.4 ± 2.4
319.6 K, 5142.9 kPa, isochoric method	1117.2 ± 2.4
319.8 K, 24935 kPa, isochoric method	1202.7 ± 2.4
320.41 K, 14882 kPa, isochoric method	1163.9 ± 2.4
327 K, 29927 kPa, isochoric method	1202.2 ± 2.4
328.71 K, 2042.5 kPa, isochoric method	1060.1 ± 2.4
328.71 K, 9986.8 kPa, isochoric method	1116.5 ± 2.4
328.72 K, 19949 kPa, isochoric method	1163.2 ± 2.4
330.83 K, 2963.3 kPa, isochoric method	1060 ± 2.4
333.13 K, 3964.2 kPa, isochoric method	1059.8 ± 2.4
334.34 K, 34952 kPa, isochoric method	1201.6 ± 2.4
335.43 K, 4968.4 kPa, isochoric method	1059.7 ± 2.4
336.83 K, 24924 kPa, isochoric method	1162.6 ± 2.4
337.81 K, 14797 kPa, isochoric method	1115.9 ± 2.4
341.91 K, 40043 kPa, isochoric method	1201 ± 2.4
345.09 K, 29935 kPa, isochoric method	1162 ± 2.4
346.84 K, 9943.4 kPa, isochoric method	1058.9 ± 2.4
347.53 K, 19908 kPa, isochoric method	1115.2 ± 2.4
353.15 K, 12717 kPa, isochoric method	1058.5 ± 2.4
353.15 K, 22854 kPa, isochoric method	1114.8 ± 2.4
353.15 K, 34806 kPa, isochoric method	1161.4 ± 2.4

FC(F)(F)I [trifluoroiodomethane]
Conditions	mass density [kg/m3]
207.79 K, 10925 kPa, isochoric method	2455.5 ± 2.9
210.4 K, 14322 kPa, isochoric method	2455 ± 2.9
214.87 K, 20130 kPa, isochoric method	2454.2 ± 2.9
214.92 K, 1055.7 kPa, isochoric method	2401.1 ± 2.9
215.96 K, 2305 kPa, isochoric method	2400.9 ± 2.9
216.71 K, 3175.5 kPa, isochoric method	2400.7 ± 2.9
217.73 K, 4381.5 kPa, isochoric method	2400.5 ± 2.9
218.37 K, 5116.4 kPa, isochoric method	2400.4 ± 2.9
218.48 K, 25008 kPa, isochoric method	2453.5 ± 2.9
222.4 K, 29924 kPa, isochoric method	2452.8 ± 2.9
222.62 K, 10052 kPa, isochoric method	2399.6 ± 2.9
226.21 K, 34684 kPa, isochoric method	2452.1 ± 2.9
226.99 K, 15121 kPa, isochoric method	2398.8 ± 2.9
229.95 K, 39202 kPa, isochoric method	2451.5 ± 2.9
231.25 K, 20002 kPa, isochoric method	2398.1 ± 2.9
231.74 K, 1109.5 kPa, isochoric method	2334.8 ± 2.8
233.57 K, 2990.1 kPa, isochoric method	2334.5 ± 2.8
234.66 K, 4114 kPa, isochoric method	2334.3 ± 2.8
235.46 K, 4930.4 kPa, isochoric method	2334.1 ± 2.8
235.5 K, 24985 kPa, isochoric method	2397.3 ± 2.9
239.91 K, 29944 kPa, isochoric method	2396.6 ± 2.9
240.52 K, 10116 kPa, isochoric method	2333.3 ± 2.8
244.17 K, 34707 kPa, isochoric method	2395.8 ± 2.9
245.45 K, 15114 kPa, isochoric method	2332.4 ± 2.8
248.78 K, 39783 kPa, isochoric method	2395.1 ± 2.9
250.46 K, 20143 kPa, isochoric method	2331.6 ± 2.8
251.97 K, 1975.5 kPa, isochoric method	2256.4 ± 2.8
253.21 K, 3063.1 kPa, isochoric method	2256.2 ± 2.8
254.16 K, 3884.4 kPa, isochoric method	2256 ± 2.8
255.27 K, 4873.4 kPa, isochoric method	2255.8 ± 2.8
255.32 K, 25028 kPa, isochoric method	2330.8 ± 2.8
260.19 K, 29834 kPa, isochoric method	2330 ± 2.8
261.5 K, 10373 kPa, isochoric method	2254.8 ± 2.8
265.13 K, 34684 kPa, isochoric method	2329.2 ± 2.8
266.41 K, 776 kPa, isochoric method	2188.5 ± 2.7
266.75 K, 1052.9 kPa, isochoric method	2188.4 ± 2.7
267.06 K, 15109 kPa, isochoric method	2253.2 ± 2.8
267.97 K, 1992.8 kPa, isochoric method	2188.2 ± 2.7
269.24 K, 2976.2 kPa, isochoric method	2188 ± 2.7
270.53 K, 3984.6 kPa, isochoric method	2187.8 ± 2.7
270.93 K, 40330 kPa, isochoric method	2328.3 ± 2.8
272.12 K, 5216.5 kPa, isochoric method	2187.6 ± 2.7
272.85 K, 20116 kPa, isochoric method	2252.3 ± 2.8
278.48 K, 25009 kPa, isochoric method	2252.2 ± 2.8
278.49 K, 10098 kPa, isochoric method	2186.6 ± 2.7
278.5 K, 24979 kPa, isochoric method	2251.5 ± 2.8
284.17 K, 29780 kPa, isochoric method	2250.6 ± 2.8
284.36 K, 940.5 kPa, isochoric method	2105.8 ± 2.7
285.08 K, 15134 kPa, isochoric method	2185.7 ± 2.7
285.92 K, 1976.8 kPa, isochoric method	2105.6 ± 2.7
287.34 K, 2905.5 kPa, isochoric method	2105.4 ± 2.7
288.88 K, 3930.3 kPa, isochoric method	2105.2 ± 2.7
290.4 K, 34997 kPa, isochoric method	2249.7 ± 2.8
290.43 K, 4950.8 kPa, isochoric method	2104.9 ± 2.7
291.69 K, 20129 kPa, isochoric method	2184.7 ± 2.7
296.15 K, 39750 kPa, isochoric method	2248.8 ± 2.8
297.94 K, 861.4 kPa, isochoric method	2038.1 ± 2.7
298.14 K, 10026 kPa, isochoric method	2103.9 ± 2.7
298.15 K, 2000 kPa, Pycnometric method	2046.84 ± 2.2
298.15 K, 25035 kPa, isochoric method	2183.8 ± 2.7
300.01 K, 2068.2 kPa, isochoric method	2037.9 ± 2.7
301.75 K, 3070.1 kPa, isochoric method	2037.6 ± 2.7
303.44 K, 4061.6 kPa, isochoric method	2037.4 ± 2.7
304.54 K, 29729 kPa, isochoric method	2182.8 ± 2.7
305.17 K, 5069.5 kPa, isochoric method	2037.2 ± 2.7
305.56 K, 14805 kPa, isochoric method	2102.8 ± 2.7
311.69 K, 35046 kPa, isochoric method	2181.8 ± 2.7
313.22 K, 982.5 kPa, isochoric method	1957.5 ± 2.6
313.53 K, 19969 kPa, isochoric method	2101.8 ± 2.7
313.58 K, 9932.8 kPa, isochoric method	2036.1 ± 2.7
315.12 K, 1958.3 kPa, isochoric method	1957.3 ± 2.6
317.18 K, 2990.2 kPa, isochoric method	1957 ± 2.6
318.54 K, 40060 kPa, isochoric method	2180.9 ± 2.7
319.17 K, 3976.2 kPa, isochoric method	1956.8 ± 2.6
321.22 K, 5005.2 kPa, isochoric method	1956.5 ± 2.6
321.68 K, 25300 kPa, isochoric method	2100.7 ± 2.7
322.38 K, 14998 kPa, isochoric method	2034.9 ± 2.7
328.99 K, 1994.4 kPa, isochoric method	1875.8 ± 2.6
329.49 K, 30240 kPa, isochoric method	2099.6 ± 2.7
331.3 K, 2985.8 kPa, isochoric method	1875.6 ± 2.6
331.3 K, 10058 kPa, isochoric method	1955.3 ± 2.6
331.31 K, 20061 kPa, isochoric method	2033.8 ± 2.7
333.64 K, 3972.3 kPa, isochoric method	1875.3 ± 2.6
336 K, 4985.7 kPa, isochoric method	1875 ± 2.6
337.32 K, 35169 kPa, isochoric method	2098.6 ± 2.7
340.45 K, 25264 kPa, isochoric method	2032.6 ± 2.7
341.64 K, 15161 kPa, isochoric method	1954 ± 2.6
343.84 K, 39291 kPa, isochoric method	2097.7 ± 2.7
353.14 K, 20828 kPa, isochoric method	1952.6 ± 2.6
353.15 K, 12322 kPa, isochoric method	1873 ± 2.6
353.15 K, 32431 kPa, isochoric method	2031 ± 2.7
